The values below are quoted from earlier work in patent KR20220033790A, “장 정결용 조성물” (강윤식, priority 2020, dated 2022).

Each structure is given as a SMILES string.

This data set deals with blood glucose (혈당). Conditions: scale 0-100, glucose = 100 at 2 h after intake; background statement.

For the compound `OC[C@@H](O)[C@@H](O)[C@H](O)[C@@H](O)CO.OC[C@@H](O)[C@@H](O)[C@H](O)[C@@H](O)CO` [소르비톨], the “Glycemic index (GI)” value was 4.
Regarding `OC[C@@H](O)[C@H](O)[C@@H](O)CO` [자일리톨], the “Glycemic index (GI)” value is on record as 14.
